According to patent US8361967B2, “Beta sheet inhibiting peptides for preventing and/or treating Alzheimer's Disease” (Tianjin Medical University, priority 2008, dated 2013):
No end group written: not given here.

Tests used:
[1] = tested on: human neuroblastoma SH-SY5Y cells; experiment: Cytotoxicity test (MTT): viability of SH-SY5Y cells incubated with Aβ1-42; format: cell-based; details: 72 hours
Protocol: 5. Cytotoxicity test: a commonly-used cell line, human neuroblastoma SH-SY5Y, was used in the assay of cytotoxcity, which was purchased from Xuanwu Hospital of Capital Medical University and cultured in MEM medium (supplemented with 10% (v/v) fetal bovine serum) by conventional methods, in a 37° C., 5% CO2 incubator. The cell line was subcultured once every 5 days. When the SH-SY5Y cells grew stably in the logarithmic phase, the cells were inoculated into a 96 well plates (Costar) in a density of 1.0×10^4/ml, with 200 μl of medium added per well. After 24 hours, the medium was replaced by serum-free medium, and Aβ1-42 was added to the concentration of 5 μmol/L. The wells were divided into several groups. […] At 72 hours after the addition of the polypeptides, 20 μl of 3-(4,5-dimethyl-2-thiazolyl)-2,5-diphenyltetrazole bromide (MTT) (5 mg/ml) was added into each well, and the plate was incubated at 37° C. for 4 hours. Then the original culture medium was discarded, and 200 μl of DMSO was added into each well. The plate was left to stand for 10 min and then shaken for 1 min, allowing the Formazane particles to be completely dissolved. Then the optical density (OD) at 492 nm was measured on an automatic microplate reader.

APP 695 transgenic mice [2] = experiment: Immunohistochemical staining of hippocampal CA1 neurons (anti-APP N-terminal and anti-Aβ antibody) in APP 695 transgenic mice; format: in vivo; details: intracerebroventricular 3 μl of 40 μmol/L daily for 10 days
Excerpt: (§1) Experimental animals: thirty APP 695 transgenic mice of nine-month-old and ten C57BL/6J mice which are matched in genetic background and age, were all purchased from the experimental animal research center of Peking Union Medical College, Chinese Academy of Medical Sciences.
(§2) Animal grouping and model preparation: the thirty APP 695 transgenic mice were randomly divided into model group of 15 mice and the polypeptide-injected group of 15 mice. Ten C57BL/6J mice were used as a normal control group. For the polypeptide-injected group, the animals were received intracerebroventricular injection of 3 μl of saline solution containing H102 of 40 μmol/L each time. For the control group and model group, the animals were received intracerebroventricular injection of 3 μl of normal saline solution each time. The injection was carried out daily for 10 days. All animals were kept in the same conditions in SPF-grade mice room in the experimental animal research center of Tianjin Medical University
(§3) The animals were anaesthetized intraperitoneally by 10% chloral hydrate at a dose of 400 mg/Kg weight. The animals were fixed on a brain stereotaxic frame, and the hair was cut off. After disinfection with Anerdian, the skin was incised along the midline of the head for about 1 cm. The periosteum was stripped to expose the bone marks. […]

APP 695 transgenic mice [3] = experiment: Congo Red staining of amyloid plaques in temporal cortex and hippocampus of APP 695 transgenic mice; format: in vivo; details: intracerebroventricular 3 μl of 40 μmol/L daily for 10 days
Excerpt: as §1, §2, §3

Aβ1-42 peptide [4] = target: T1, Aβ1-42 peptide (Homo sapiens, UniProt P05067); experiment: Electron microscopy of Aβ1-42 fibril formation; format: biochemical; set-up: Reagents: Aβ1-42 (purity >98%); purchased Sigma-Aldrich, Inc; details: peptide 44.30 μmol/L with Aβ1-42 11.07 μmol/L, 37° C., 5 days; for length of formed Aβ fibrils: Aβ alone about 0.5 to 5 μm; for diameter of formed Aβ fibrils: Aβ alone about 8 to 10 nm
Protocol: 4. […] Samples of 5 μl were taken from each group, dropped onto a 300-mesh deionized copper mesh with carbon support film, and left to stand at room temperature for 15 min. The samples were negatively stained in dark by 2% uranyl acetate for 2 min. After drying, the samples were observed under a transmission electron microscope.

Aβ1-42 peptide [5] = target: T1, Aβ1-42 peptide; details: for ThT fluorescence intensity over time vs Aβ1-42 alone: 44.30 μmol/L with Aβ1-42 11.07 μmol/L, 37° C., 12 h to 7 d; for dose dependence of effect on Aβ fibril formation / most effective concentration for inhibition of Aβ fibril formation: 10-100 μmol/L with Aβ1-42 11.07 μmol/L; for dose dependence of effect on Aβ fibril formation / effect on Aβ1-42 aggregation and fibril formation (ThT, FIG. 2) / most effective concentration for inhibition of Aβ fibril formation / Inhibition (%) of Aβ aggregation: 37° C. for 24 h; for effect on Aβ1-42 aggregation and fibril formation (ThT, FIG. 2) / Inhibition (%) of Aβ aggregation: Aβ1-42 11.07 μmol/L, test substance 44.30 μmol/L; for most effective concentration for inhibition of Aβ fibril formation: dose-effect; for Inhibition (%) of Aβ aggregation: Aβ1-42 alone = 100% fluorescence
Protocol: 2. […] Each solution was incubated at 37° C. for 24 h, and 10 μl was taken out from each group and added into 990 μl of 3.0 μmol/L ThT phosphate buffer. ThT fluorescence intensity was measured at the excitation wavelength of 453 nm and emission wavelength of 478˜486 nm.
3. The dose-effect and time-effect relationships of the polypeptides of the invention on Aβ1-42: polypeptide H102 was formulated in PBS (as described above) to obtain a series of concentrations, and Aβ1-42 was added into the solutions to the concentration of 11.07 μmol/L. The resulted solutions were incubated at 37° C. for 24 hours, and samples were taken and measured for ThT fluorescence intensity, in order to determine the dose-effect relationship of the polypeptides of the invention on Aβ1-42. Solutions containing H102 of 44.30 μmol/L and Aβ1-42 of 11.07 μmol/L, or Vitamin E of 44.30 μmol/L and Aβ1-42 of 11.07 μmol/L, respectively, were incubated at 37° C. Samples were taken and measured for ThT fluorescence intensity at the time points of 12 hours (12 h), 1 day (1 d), 3 days (3 d), 5 days (5 d) and 7 days (7 d) after the incubation, in order to determine the time-effect relationships of various polypeptides on Aβ1-42.

| Substance | effect on viability of SH-SY5Y cells ([1]; 10, 20 and 40 μmol/L with Aβ1-42 5 μmol/L) | optimal concentration to improve the viability of cells ([1]; Aβ1-42 5 μmol/L) | amount of Aβ1-42 positive cells in brain CA1 area vs model group (APP 695 transgenic mice [2]) | amyloid plaques (Congo red) vs transgenic model group (APP 695 transgenic mice [3]) | length of formed Aβ fibrils (Aβ1-42 peptide [4]) | diameter of formed Aβ fibrils (Aβ1-42 peptide [4]) | T1/2, time point at which the fluorescence intensity reaches the half-peak (Aβ1-42 peptide [5]) | ThT fluorescence intensity over time vs Aβ1-42 alone (Aβ1-42 peptide [5]) | dose dependence of effect on Aβ fibril formation (Aβ1-42 peptide [5]) | effect on Aβ1-42 aggregation and fibril formation (ThT, FIG. 2) (Aβ1-42 peptide [5]) | most effective concentration for inhibition of Aβ fibril formation (Aβ1-42 peptide [5]) | Inhibition (%) of Aβ aggregation (Aβ1-42 peptide [5]) |
| --- | --- | --- | --- | --- | --- | --- | --- | --- | --- | --- | --- | --- |
| HKQLPFFEED [H102] | most effective to improve the viability of cells | 20 µmol/L | much lower than that of the model group | much lower in the number and size | 0.3 to 3 μm | 3 to 6 nm | fourth day | significantly weaker at each time point | dose-dependent | remarkably inhibit | about 20 μmol/L |  |
| Leu-Pro-Phe-Phe-Asp (LPFFD; printed: Leu-Pro-Phe-Phe-Asp) [L5, reference compound] |  |  |  |  | 0.3 to 5 μm | 4 to 8 nm |  |  |  |  |  | 25.74% |
| Vitamin E |  |  |  |  |  |  | fourth day | significantly weaker at each time point | dose-dependent | remarkably inhibit | about 20 μmol/L | 24.85% |
